Measurements as given in publication PMC5719400, “Engineering an aldehyde dehydrogenase toward its substrates, 3-hydroxypropanal and NAD^+, for enhancing the production of 3-hydroxypropionic acid” (Scientific Reports, 2017).

Target: T1, KGSADH (α-ketoglutaric semialdehyde dehydrogenase) (Azospirillum brasilense, UniProt Q1JUP4)
T1 construct: gene araE; N-terminal His6-tag (pQE80L), expressed in E. coli DH10β, Ni-NTA purified; catalytic residues E253 and C287
Assay: product inhibition, A340 activity assay
Assay type: biochemical
Conditions: 2 mM NAD+, 100 mM phosphate pH 8

T1 sequence (Q1JUP4 2-481): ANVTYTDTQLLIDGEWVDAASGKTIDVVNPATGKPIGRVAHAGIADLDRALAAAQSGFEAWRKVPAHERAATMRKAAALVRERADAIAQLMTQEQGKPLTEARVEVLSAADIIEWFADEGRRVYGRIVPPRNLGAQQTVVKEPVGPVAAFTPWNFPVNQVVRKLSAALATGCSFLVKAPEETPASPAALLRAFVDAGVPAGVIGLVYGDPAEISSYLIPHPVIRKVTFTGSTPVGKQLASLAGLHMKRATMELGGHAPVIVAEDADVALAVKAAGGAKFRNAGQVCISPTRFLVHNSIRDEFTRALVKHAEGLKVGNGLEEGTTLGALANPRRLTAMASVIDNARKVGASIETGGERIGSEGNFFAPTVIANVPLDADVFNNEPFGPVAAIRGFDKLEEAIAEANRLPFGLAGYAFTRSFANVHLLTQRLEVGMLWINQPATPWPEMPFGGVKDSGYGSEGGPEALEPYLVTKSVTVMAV

Compound: O=C(O)CCO [3-HP, 3-hydroxypropionic acid]
- % decrease in activity at 1 M: ~ 40%
